Measurements: patent US20240150322A1, “CDK9 Inhibitors” (Biolexis Therapeutics, Inc., priority 2022, published 2024)

Experiments:
[1] = system: RWPE-1 Normal Prostate Cells; test: CellTiter-Glo 2D cell viability assay in normal prostate cells; assay type: cell-based; conditions: Homo sapiens; RWPE-1 normal prostate cells, 72 hours
Experimental: Multiplexing the LDH-Glo Cytotoxicity Assay and CellTiter-Glo 2D Cell Viability Assay. […] Change in toxicity was measured using the LDH-Glo Cytotoxicity Assay by combining 50 μL diluted samples with 50 μL LDH Detection Reagent and recording luminescence after 1 hour incubation. After samples were removed for LDH measurement, an equal volume of CellTiter Glo 2D Reagent was added to the remaining cell suspension and luminescence was recorded after 30-minute incubation period.

CDK3/cyclinE [2] = target: T1, CDK3/cyclinE (Homo sapiens, UniProt Q00526); test: CDK family kinase profiling, radioisotope-based assay (33P); assay type: biochemical; design: purchased Reaction Biology; conditions: read-out: 10-dose IC50
Experimental: (§1) CDKs family kinases profiling assays were performed with DiscoveRx Matrix of Kds KINOMEscan (KdELECT) and Reaction Biology using miniaturized radioisotope-based assay platform (^33P). IC50 value estimated based on the best curve fitting available.
Target sequence in this assay (Q00526 whole entry): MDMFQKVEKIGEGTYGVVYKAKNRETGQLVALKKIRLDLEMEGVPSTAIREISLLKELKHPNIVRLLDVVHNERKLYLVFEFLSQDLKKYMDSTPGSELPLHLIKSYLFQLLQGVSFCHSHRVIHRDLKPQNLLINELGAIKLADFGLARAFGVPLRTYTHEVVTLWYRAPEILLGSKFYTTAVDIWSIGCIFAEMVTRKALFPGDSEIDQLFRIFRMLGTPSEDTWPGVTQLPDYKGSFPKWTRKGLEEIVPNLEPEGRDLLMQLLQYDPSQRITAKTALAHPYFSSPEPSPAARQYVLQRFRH
Target sequence in this assay (P24864 whole entry partner): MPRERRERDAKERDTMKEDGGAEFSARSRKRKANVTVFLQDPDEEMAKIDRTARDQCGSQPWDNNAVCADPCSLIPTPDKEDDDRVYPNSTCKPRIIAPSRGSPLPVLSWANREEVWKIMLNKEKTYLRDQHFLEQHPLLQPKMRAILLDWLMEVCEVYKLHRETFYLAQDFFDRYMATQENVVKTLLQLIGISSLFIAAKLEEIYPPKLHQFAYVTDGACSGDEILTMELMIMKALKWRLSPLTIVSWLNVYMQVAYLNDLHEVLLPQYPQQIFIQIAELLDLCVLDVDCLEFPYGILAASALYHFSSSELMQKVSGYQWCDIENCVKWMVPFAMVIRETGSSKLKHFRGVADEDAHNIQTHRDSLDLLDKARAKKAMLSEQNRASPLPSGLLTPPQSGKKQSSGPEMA

CDK2/cyclinA [3] = target: T2, CDK2/cyclinA (Homo sapiens, UniProt P24941); test: as above; assay type: biochemical; design: purchased Reaction Biology; conditions: read-out: 10-dose IC50
Experimental: as §1

[4] = Pharmacokinetic study in rat; conditions: in vivo, po
LNCap = test: 2D CellTiter-Glo cell viability assay; assay type: cell-based; conditions: Homo sapiens, 72 hours
Experimental: (§2) CellTiter-Glo® 2.0 Luminescent cell viability assay reagent was purchased from Promega and 22Rv1 and LASCPC-01 cell lines were purchased from ATCC. […] An equal volume of CellTiter-Glo 2D Reagent was added to the cell suspensions and luminescence was recorded after 30-minute incubation period. […] FIG. 2 illustrates cellular antiproliferative efficacy of a benchmark CDK9 inhibitor AD-4573 on six prostate cancer cell lines over various concentrations.
(§3) CellTiter-Glo® 2.0 Luminescent cell viability assay reagent was purchased from Promega and 22Rv1, LASCPC-01, C4-2, C4-2B and NCI-H660, DU-145, PC-3 and LNCap cell lines were obtained from ATCC and a clinical core facility at Huntsman Cancer Institute. […] The results of cell viability were obtained and IC50 values were calculated (see Table 5, below) showing sub-micromolar cell killing of these prostate cancer cells.

NCI-H660 = test: 2D CellTiter-Glo cell viability assay; assay type: cell-based; conditions: NCI-H660, 72 hours
Experimental: as §2, §3

DU-145 = test: 2D CellTiter-Glo cell viability assay; assay type: cell-based; conditions: Homo sapiens; DU-145, 72 hours
Experimental: as §2, §3

22Rv1 = test: 2D CellTiter-Glo cell viability assay; assay type: cell-based; conditions: Homo sapiens; 22Rv1, 72 hours
Experimental: as §2, §3

LASCPC-01 [5] = test: 2D CellTiter-Glo cell viability assay; assay type: cell-based; conditions: LASCPC-01, 72 hours
Experimental: as §2, §3

CDK9 = CDK9 (Homo sapiens, UniProt P50750); test: DiscoveRx KINOMEscan (KdELECT, scanMAX panel); assay type: binding
Experimental: as §1

PCTK1 = PCTK1 (Homo sapiens, UniProt Q00536); test: scanMAX panel and Kd follow-up; assay type: binding
CDK4/cyclinD = CDK4/cyclinD (Homo sapiens, UniProt P11802); test: DiscoveRx KINOMEscan Kd (KdELECT); assay type: binding
Experimental: as §1

CDK3/cyclinE [6] = target: T1, CDK3/cyclinE; test: DiscoveRx KINOMEscan Kd (KdELECT); assay type: binding
Experimental: as §1
Target sequence in this assay (Q00526 whole entry): as the sequence (Q00526 whole entry) above

CDK2/cyclinA [7] = target: T2, CDK2/cyclinA; test: DiscoveRx KINOMEscan Kd (KdELECT); assay type: binding
Experimental: as §1

[8] = system: C4-2 human neuroendocrine prostate cancer xenograft; test: In vivo tumor efficacy study 3, C4-2 xenograft
human P450 isozyme 2C19 = target: T3, human P450 isozyme 2C19 (Homo sapiens, UniProt P33261); test: P450 isozyme inhibition assay (baculosomes); assay type: in vitro ADME; conditions: P450 2C19
T3 construct: host or cells: insect cells infected with recombinant baculovirus
Experimental: (§4) P450 baculosome reagents (i.e., microsomes), were prepared from insect cells infected with recombinant baculovirus containing a human P450 isozyme and a rabbit NAPDH-P450 reductase since only a single P450 isozyme is expressed over human liver microsomes (HLM).

human P450 isozyme 3A4 = target: T4, human P450 isozyme 3A4 (Homo sapiens, UniProt P08684); test: P450 isozyme inhibition assay (baculosomes); assay type: in vitro ADME; conditions: P450 3A4
T4 construct: made in house; host or cells: insect cells infected with recombinant baculovirus
Experimental: as §4

human P450 isozyme 2D6 = target: T5, human P450 isozyme 2D6 (Homo sapiens, UniProt P10635); test: P450 isozyme inhibition assay (baculosomes); assay type: in vitro ADME; conditions: P450 2D6
T5 construct: made in house; host or cells: insect cells infected with recombinant baculovirus
Experimental: as §4

human P450 isozyme 2C9 = target: T6, human P450 isozyme 2C9 (Homo sapiens, UniProt P11712); test: P450 isozyme inhibition assay (baculosomes); assay type: in vitro ADME; conditions: P450 2C9
T6 construct: host or cells: insect cells infected with recombinant baculovirus
Experimental: as §4

human P450 isozyme 1A2 = target: T7, human P450 isozyme 1A2 (Homo sapiens, UniProt P05177); test: P450 isozyme inhibition assay (baculosomes); assay type: in vitro ADME; conditions: P450 1A2
T7 construct: host or cells: insect cells infected with recombinant baculovirus
Experimental: as §4

LASCPC-01 [9] = test: Annexin V/7-AAD apoptosis assay; assay type: cell-based
PRKD3 = PRKD3 (Homo sapiens, UniProt O94806); test: scanMAX panel and Kd follow-up; assay type: binding
Chain of PRKD3 (O94806 whole entry): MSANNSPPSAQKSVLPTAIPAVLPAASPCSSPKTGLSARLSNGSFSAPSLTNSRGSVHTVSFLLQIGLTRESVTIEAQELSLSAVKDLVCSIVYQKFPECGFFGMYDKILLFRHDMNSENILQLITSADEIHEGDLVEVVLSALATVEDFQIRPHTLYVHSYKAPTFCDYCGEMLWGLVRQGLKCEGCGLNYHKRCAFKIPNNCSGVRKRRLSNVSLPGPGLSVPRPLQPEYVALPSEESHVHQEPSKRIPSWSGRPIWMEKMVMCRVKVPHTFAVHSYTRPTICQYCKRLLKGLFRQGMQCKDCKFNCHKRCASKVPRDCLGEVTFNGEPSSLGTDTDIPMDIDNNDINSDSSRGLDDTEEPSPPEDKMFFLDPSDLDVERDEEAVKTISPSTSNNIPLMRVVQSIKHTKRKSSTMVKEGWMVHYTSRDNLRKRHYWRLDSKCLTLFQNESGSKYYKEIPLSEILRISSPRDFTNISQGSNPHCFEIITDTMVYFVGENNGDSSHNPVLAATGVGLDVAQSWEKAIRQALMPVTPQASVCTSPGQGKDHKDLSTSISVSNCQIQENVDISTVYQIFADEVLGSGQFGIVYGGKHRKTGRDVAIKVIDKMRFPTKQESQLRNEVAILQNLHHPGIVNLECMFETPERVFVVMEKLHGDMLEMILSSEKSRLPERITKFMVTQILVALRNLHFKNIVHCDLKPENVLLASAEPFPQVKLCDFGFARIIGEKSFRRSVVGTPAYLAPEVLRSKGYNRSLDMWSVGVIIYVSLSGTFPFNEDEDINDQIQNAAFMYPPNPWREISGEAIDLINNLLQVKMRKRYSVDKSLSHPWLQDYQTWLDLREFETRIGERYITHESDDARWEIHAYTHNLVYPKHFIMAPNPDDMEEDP

Chain of CDK9 (P50750 whole entry): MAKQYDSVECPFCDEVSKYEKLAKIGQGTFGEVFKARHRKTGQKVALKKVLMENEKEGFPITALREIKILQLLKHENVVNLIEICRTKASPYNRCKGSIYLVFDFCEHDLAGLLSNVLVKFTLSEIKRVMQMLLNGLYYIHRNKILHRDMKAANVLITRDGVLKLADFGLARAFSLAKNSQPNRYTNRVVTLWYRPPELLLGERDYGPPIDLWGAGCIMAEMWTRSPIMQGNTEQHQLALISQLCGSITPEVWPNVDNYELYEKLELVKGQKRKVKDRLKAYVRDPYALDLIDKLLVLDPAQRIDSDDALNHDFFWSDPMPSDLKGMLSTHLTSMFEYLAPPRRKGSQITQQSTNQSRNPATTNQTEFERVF
Chain of PCTK1 (Q00536 whole entry): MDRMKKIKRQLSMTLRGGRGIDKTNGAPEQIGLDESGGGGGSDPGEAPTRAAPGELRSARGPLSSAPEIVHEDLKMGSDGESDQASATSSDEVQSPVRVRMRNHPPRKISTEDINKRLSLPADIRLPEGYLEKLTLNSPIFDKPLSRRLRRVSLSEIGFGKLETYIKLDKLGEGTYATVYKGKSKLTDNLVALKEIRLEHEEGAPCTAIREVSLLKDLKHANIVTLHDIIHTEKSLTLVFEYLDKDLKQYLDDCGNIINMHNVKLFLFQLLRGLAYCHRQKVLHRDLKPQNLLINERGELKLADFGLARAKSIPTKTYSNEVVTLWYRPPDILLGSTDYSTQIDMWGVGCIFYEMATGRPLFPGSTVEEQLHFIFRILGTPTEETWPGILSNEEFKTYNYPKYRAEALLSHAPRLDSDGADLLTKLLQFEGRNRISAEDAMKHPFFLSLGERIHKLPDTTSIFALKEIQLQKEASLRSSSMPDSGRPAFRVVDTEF
T3 sequence (P33261 whole entry): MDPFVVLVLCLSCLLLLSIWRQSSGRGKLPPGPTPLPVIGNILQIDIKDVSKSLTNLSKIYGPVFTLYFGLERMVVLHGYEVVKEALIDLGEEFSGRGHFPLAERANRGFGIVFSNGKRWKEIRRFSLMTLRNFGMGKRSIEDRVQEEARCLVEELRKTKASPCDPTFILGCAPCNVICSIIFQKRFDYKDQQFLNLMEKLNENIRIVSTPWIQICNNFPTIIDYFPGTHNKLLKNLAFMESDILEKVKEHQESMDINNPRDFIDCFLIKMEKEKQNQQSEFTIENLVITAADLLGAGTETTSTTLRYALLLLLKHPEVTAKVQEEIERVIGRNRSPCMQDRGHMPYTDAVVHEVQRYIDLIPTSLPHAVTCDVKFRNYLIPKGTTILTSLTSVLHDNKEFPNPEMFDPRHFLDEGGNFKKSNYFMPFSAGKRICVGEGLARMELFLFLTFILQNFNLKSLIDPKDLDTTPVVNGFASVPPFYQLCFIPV
T7 sequence (P05177 whole entry): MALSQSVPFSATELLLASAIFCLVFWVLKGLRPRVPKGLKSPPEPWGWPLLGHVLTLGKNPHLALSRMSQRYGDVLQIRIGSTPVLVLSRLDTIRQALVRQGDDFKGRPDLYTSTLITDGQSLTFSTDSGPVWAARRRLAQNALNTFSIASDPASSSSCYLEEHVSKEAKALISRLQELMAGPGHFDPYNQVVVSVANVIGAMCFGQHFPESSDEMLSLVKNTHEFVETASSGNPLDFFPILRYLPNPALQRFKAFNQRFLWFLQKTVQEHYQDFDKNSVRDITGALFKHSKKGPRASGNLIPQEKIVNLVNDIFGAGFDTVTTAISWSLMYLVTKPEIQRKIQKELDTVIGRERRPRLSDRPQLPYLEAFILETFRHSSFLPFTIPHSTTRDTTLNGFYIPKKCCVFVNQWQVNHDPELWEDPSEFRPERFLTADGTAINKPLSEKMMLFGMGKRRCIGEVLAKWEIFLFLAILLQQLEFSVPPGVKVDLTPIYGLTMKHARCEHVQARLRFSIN
Chain of CDK4/cyclinD (P11802 whole entry): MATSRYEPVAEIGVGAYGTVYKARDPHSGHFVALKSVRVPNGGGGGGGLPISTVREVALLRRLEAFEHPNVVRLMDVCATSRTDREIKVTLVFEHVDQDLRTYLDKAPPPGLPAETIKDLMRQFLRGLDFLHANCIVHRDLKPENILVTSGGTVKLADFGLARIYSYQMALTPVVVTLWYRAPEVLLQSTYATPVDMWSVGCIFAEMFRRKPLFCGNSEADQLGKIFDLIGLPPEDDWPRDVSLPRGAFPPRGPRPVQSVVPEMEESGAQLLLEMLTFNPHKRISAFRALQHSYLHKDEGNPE
Chain of CDK4/cyclinD (P24385 whole entry partner): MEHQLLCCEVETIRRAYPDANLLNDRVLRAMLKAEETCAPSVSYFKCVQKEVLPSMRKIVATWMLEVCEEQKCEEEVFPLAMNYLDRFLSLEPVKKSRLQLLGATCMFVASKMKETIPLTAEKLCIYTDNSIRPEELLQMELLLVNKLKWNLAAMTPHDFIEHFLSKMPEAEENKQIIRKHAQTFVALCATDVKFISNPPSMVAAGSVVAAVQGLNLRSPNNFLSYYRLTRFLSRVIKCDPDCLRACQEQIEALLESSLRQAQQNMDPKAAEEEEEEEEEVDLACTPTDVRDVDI
T5 sequence (P10635 whole entry): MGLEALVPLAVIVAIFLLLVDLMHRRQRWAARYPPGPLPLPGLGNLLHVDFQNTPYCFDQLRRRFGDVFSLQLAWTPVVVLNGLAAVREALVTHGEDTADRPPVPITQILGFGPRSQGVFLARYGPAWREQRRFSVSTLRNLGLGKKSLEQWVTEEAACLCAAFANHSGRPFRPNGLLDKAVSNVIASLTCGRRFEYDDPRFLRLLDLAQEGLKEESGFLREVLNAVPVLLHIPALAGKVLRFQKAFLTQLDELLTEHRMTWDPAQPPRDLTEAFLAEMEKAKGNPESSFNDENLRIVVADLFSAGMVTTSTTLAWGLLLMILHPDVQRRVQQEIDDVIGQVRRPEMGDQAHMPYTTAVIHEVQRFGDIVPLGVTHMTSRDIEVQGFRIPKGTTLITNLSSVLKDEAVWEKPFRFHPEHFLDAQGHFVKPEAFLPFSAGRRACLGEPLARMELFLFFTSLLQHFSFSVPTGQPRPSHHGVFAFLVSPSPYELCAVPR

CC(C)c1c2cc(-c3ccnc(N[C@H]4CC[C@H](N)C4)n3)ccc2nn1C [Compound I-2, (1S,3S)-[3-[4-(3-isopropyl-2-methylindazol-5-yl)pyrimidin-2-yl]aminocyclopentan-1-yl]-1,3-diamine] gave an IC50 [1] of 5260 nM, an IC50 (CDK3/cyclinE [2]) of 115 nM and an IC50 (CDK2/cyclinA [3]) of 17.6 nM. The bioavailability [4] was 38%, the IC50 (LNCap) was 80.4 nM and the IC50 (NCI-H660) was 448 nM. For the same molecule, the IC50 (DU-145) was 7720 nM, the IC50 (22Rv1) was 132 nM and the IC50 (LASCPC-01 [5]; 72 h) was 58 nM. The IC50 (LASCPC-01 [5]) was 58 nM, the “activity in scanMAX panel” value (CDK9; CDK9, 1 μM) was 2.7% and the Kd (CDK9; CDK9/cyclinT) was 4.2 nM. For the same molecule, the Kd (PCTK1; PCTK1) was 8.2 nM, the remaining binding at 1 µM (PCTK1; PCTK1, 1 μM, read-out: % of control activity) was 0 to 1% and the Kd (CDK4/cyclinD) was 22 nM. For the same molecule, the Kd (CDK3/cyclinE [6]) was 31 nM, the Kd (CDK2/cyclinA [7]) was 30 nM and the “decrease in tumor weight as compared to vehicle control group” value ([8]; C4-2, 50-30 mg/kg p.o., day 21) was 48.72%. For the same molecule, the “tumor volume as compared to vehicle control group” value ([8]; C4-2, 50-30 mg/kg p.o., days 18 to 21) was “significant decrease tumor volume”, the “tumor growth inhibition from vehicle control group” value ([8]; C4-2, 50-30 mg/kg p.o., terminal day 21) was 43.25% and the “body weight as compared to vehicle control group” value ([8]; C4-2 study, 50-30 mg/kg p.o., starting at day 4) was “significant body weight loss”. The “severe body weight loss” value ([8]; C4-2 study, mouse that died) was roughly 15%, the IC50 (human P450 isozyme 2C19) was 28300 nM and the IC50 (human P450 isozyme 3A4) was 31100 nM. For the same molecule, the IC50 (human P450 isozyme 2D6) was 100000 nM, the IC50 (human P450 isozyme 2C9) was 50800 nM and the IC50 (human P450 isozyme 1A2) was 29400 nM. For the same molecule, the “apoptosis by Annexin V/7-AAD staining” value (LASCPC-01 [9]; LASCPC-01) was “increased apoptosis in a dose dependent manner”, the cell death (LASCPC-01 [9]; LASCPC-01, treated for 72 hours) was 69% and the Kd (PRKD3; PRKD3) was 230 nM. The remaining binding at 1 µM (PRKD3; PRKD3, 1 μM, read-out: % of control activity) was 0 to 1%.
